# Biological target: T1, PPARγ ligand binding domain (LBD) (amino acids 195-475) (Homo sapiens, UniProt P37231)
# T1 construct: polyHis; made in house; host or cells: Escherichia coli
# T1 sequence (P37231 195-475 isoform P37231-2): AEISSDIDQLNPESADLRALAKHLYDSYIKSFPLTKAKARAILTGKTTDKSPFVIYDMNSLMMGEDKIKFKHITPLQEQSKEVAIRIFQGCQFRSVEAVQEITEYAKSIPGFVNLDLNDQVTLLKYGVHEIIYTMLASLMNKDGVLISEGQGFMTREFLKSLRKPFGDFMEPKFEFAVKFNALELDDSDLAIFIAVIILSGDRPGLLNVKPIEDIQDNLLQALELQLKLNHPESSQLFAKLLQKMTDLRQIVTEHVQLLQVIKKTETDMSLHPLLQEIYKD
# Test: PPAR-γ binding assay (spin plate / gel filtration binding assay, displacement of [3H]BRL 49653)
# Settings: read-out: IC50 range in the PPAR-γ Binding Assay
# Protocol: The activity of a given compound in binding to PPAR-γ can be assayed routinely according to procedures known in the art. […] The PPAR-γ binding assay described below was used to determine the PPAR-γ binding activities of the compounds of the invention.
# Compounds were tested for their ability to bind to PPARγ using a spin plate assay (gel filtration binding assay). […] Each compound was tested in triplicate. […] The plates were centrifuged (Beckman GS-6R) at 2500 rpm for 5 minutes, 170 μl Scitisafe® scintillation fluid (Fisher) was added to each well, the plates were sealed, and after 1 hour, were counted in a Wallac MicroBeta counter. The amount of nonspecific binding, as assessed by control wells containing 10 μM of the corresponding unlabeled ligand, was subtracted from each data point. For each compound tested, the data was averaged and plots of ligand concentration versus CPM of radioligand bound were constructed. Apparent IC50 values were estimated from nonlinear least-squares fit of the data assuming simple competitive binding.
row,Structure (SMILES),IC50 [nM]
1,CC1(C)COC(c2c(C(=O)O)n(Cc3cccc(C(F)(F)F)c3)c3ccccc23)=N1 [Example 238],10 to 10000
2,O=C(O)c1c(C2=NC3(CCCC3)CO2)c2ccccc2n1Cc1cccc(C(F)(F)F)c1 [Example 239],10 to 10000
3,O=C(O)c1c(C(=O)N2CCOCC2)c2ccccc2n1Cc1cccc(C(F)(F)F)c1 [Example 245],10 to 10000
4,CN1CCN(C(=O)c2c(C(=O)O)n(Cc3cccc(C(F)(F)F)c3)c3ccccc23)CC1 [Example 246],10 to 10000
5,O=C(O)c1c(-c2nc3ccccc3o2)c2ccccc2n1Cc1cccc(C(F)(F)F)c1 [Example 247],10 to 10000
6,O=C(O)c1c(-c2nc3cc(Cl)ccc3o2)c2ccccc2n1Cc1cccc(C(F)(F)F)c1 [Example 248],10 to 10000
7,O=C(O)c1[nH]c2c(C(=O)c3ccccc3)cccc2c1-c1ccccc1 [Example 251],10 to 10000
8,COc1cccc(Cn2c(C(=O)O)c(-c3ccc(C(C)(C)C)cc3)c3cccc(C(=O)C4CC4)c32)c1 [Example 252],10 to 10000
9,COc1cccc(Cn2c(C(=O)O)c(-c3ccc(C(C)(C)C)cc3)c3cc(C(=O)C4CC4)ccc32)c1 [Example 254],10 to 10000
10,COc1cccc(Cn2c(C(=O)O)c(-c3ccc(C(C)(C)C)cc3)c3cc(C(O)C4CC4)ccc32)c1 (centres unmarked) [Example 255],10 to 10000
11,COc1cccc(Cn2c(C(=O)O)c(-c3ccc(C(C)(C)C)cc3)c3cccc(CC4CC4)c32)c1 [Example 256],10 to 10000
12,COc1cccc(Cn2c(C(=O)O)c(-c3ccc(OCC4CC4)cc3)c3cc(OCC(=O)O)ccc32)c1 [Example 267],10 to 10000
13,Cc1sc(-c2ccccc2)nc1CCOc1ccc2c(c1)cc(C(=O)O)n2CC1CCCO1 (centres unmarked) [Example 276],10 to 10000
14,CN1CCCC1CCOc1ccc2cc(C(=O)O)n(Cc3cccc(C(F)(F)F)c3)c2c1 (centres unmarked) [Example 280],10 to 10000

# Further lines, results first:
row,IC50 [nM],Structure (SMILES)
1,0.1 to 9.99,"O=C(O)c1c(-c2cc3ccccc3s2)c2ccccc2n1Cc1cccc(C(F)(F)F)c1 [Example 232, 3-(Benzothien-2-yl)-1-[3-(trifluoromethyl)benzyl)-indole-2-carboxylic acid]"
2,10 to 10000,COc1ccc(-c2c(C(=O)O)n(Cc3cccc(OC)c3)c3ccc(OCCN(C)c4nc5ccccc5o4)cc23)cc1 [Example 233]
3,0.1 to 9.99,COc1ccc(-c2c(C(=O)O)n(Cc3cccc(C(F)(F)F)c3)c3ccc(OCCCN(C)c4nc5ccccc5o4)cc23)cc1 [Example 234]
4,0.1 to 9.99,CC(C)(C)c1ccc2oc(-c3c(C(=O)O)n(Cc4cccc(C(F)(F)F)c4)c4ccccc34)nc2c1 [Example 249]
5,0.1 to 9.99,O=C(O)c1c(-c2nc3ccccc3s2)c2ccccc2n1Cc1cccc(OCC2CC2)c1 [Example 250]
6,0.1 to 9.99,COc1cccc(Cn2c(C(=O)O)c(-c3ccc(C(C)(C)C)cc3)c3cc(CC4CC4)ccc32)c1 [Example 253]
7,0.1 to 9.99,O=C(O)c1c(-c2nc3cc(C(F)(F)F)ccc3s2)c2ccccc2n1Cc1cccc(C(F)(F)F)c1 [Example 257]
8,0.1 to 9.99,COc1cccc(Cn2c(C(=O)O)c(-c3ccc(C4(C)CC4)cc3)c3ccccc32)c1 [Example 258]
9,0.1 to 9.99,O=C(O)c1c(-c2ccc(C3CC3)cc2)c2ccccc2n1Cc1cccc(C(F)(F)F)c1 [Example 260]
10,0.1 to 9.99,COc1cccc(Cn2c(C(=O)O)c(-c3ccc(C4CC4)cc3)c3ccccc32)c1 [Example 261]
11,0.1 to 9.99,O=C(O)c1c(-c2ccc(SC3CC3)cc2)c2ccccc2n1Cc1cccc(C(F)(F)F)c1 [Example 262]
12,0.1 to 9.99,COc1cccc(Cn2c(C(=O)O)c(-c3ccc(SC4CC4)cc3)c3ccccc32)c1 [Example 263]
13,0.1 to 9.99,CCOCCOc1ccc2c(c1)c(-c1cccc(OCC3CC3)c1)c(C(=O)O)n2Cc1cccc(OC)c1 [Example 271]
14,0.1 to 9.99,COc1cccc(Cn2c(C(=O)O)c(-c3cccc(OCC4CC4)c3)c3cc(OCCOCc4ccccc4)ccc32)c1 [Example 272]
15,0.1 to 9.99,COc1cccc(Cn2c(C(=O)O)c(-c3ccc(C(C)(C)C)cc3)c3cc(CCOCC4CC4)ccc32)c1 [Example 275]

# From US6787651B2, “Substituted indoles, pharmaceutical compounds containing such indoles and their use as PPAR-γ binding agents” (SmithKline Beecham Corporation, priority 2000, dated 2004)
